{"source": "patent US9682928B2", "about": "(NeuroPro Therapeutics, Inc., priority 2009, dated 2017)", "key": {"[1]": {"test": "Blood levels in rat following IP administration", "type": "in vivo", "details": "for Concentration of NTP-2000 (bumetanide) in rat blood: after NTP-2024 100 mg/kg IP"}, "Na+K+Cl− co-transporter": {"molecular_target": "T1, Na+K+Cl− co-transporter (Rattus norvegicus, UniProt E9PTX9)", "T1 construct": "endogenous in cells; host or cells: A7r5 cells", "T1 sequence (E9PTX9 1-1203)": "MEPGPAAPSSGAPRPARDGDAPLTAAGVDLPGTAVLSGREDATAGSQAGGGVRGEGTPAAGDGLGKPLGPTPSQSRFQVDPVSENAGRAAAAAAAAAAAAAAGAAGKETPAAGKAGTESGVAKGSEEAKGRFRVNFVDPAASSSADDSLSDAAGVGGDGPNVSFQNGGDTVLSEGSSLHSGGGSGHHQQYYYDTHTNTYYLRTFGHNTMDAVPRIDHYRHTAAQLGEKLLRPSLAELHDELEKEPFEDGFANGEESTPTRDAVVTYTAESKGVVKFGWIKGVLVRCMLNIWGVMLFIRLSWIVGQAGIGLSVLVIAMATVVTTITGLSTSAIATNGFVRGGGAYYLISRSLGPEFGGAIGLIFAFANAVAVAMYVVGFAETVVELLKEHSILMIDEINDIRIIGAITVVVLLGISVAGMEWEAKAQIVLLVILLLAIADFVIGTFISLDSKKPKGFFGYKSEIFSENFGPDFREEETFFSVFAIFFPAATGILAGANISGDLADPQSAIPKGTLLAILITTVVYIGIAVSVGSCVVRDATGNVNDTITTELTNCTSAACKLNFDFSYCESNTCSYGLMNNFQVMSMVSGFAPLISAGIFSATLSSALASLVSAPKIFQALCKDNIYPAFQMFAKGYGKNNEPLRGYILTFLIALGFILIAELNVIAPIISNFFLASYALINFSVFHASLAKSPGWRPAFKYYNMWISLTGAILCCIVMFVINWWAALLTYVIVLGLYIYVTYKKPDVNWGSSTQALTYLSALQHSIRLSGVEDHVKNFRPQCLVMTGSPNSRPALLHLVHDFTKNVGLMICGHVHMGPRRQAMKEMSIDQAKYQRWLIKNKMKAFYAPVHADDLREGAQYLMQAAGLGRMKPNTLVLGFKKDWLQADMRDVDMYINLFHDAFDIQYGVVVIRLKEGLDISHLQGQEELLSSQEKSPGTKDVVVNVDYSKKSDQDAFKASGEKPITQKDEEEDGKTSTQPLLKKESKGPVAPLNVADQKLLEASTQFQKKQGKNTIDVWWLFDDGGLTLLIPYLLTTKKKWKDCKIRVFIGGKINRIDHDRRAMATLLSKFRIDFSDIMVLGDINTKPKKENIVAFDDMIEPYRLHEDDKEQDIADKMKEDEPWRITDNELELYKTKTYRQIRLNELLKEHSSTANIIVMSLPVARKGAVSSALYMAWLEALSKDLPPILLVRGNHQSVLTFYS", "test": "Na+K+Cl− cotransporter assay, 86Rb uptake in A7r5 cells", "type": "cell-based", "details": "10 minutes at 37° C.; for inhibition at 10 µM: read-out: % Inhibition of Control Values; for remaining activity at 10 µM: read-out: % of Control Value", "protocol": "Na^+K^+Cl^− co-transporter activity was measured in vitro in A7r5 cells by measuring their uptake of ^86Rb (0.2 μCi) in 10 minutes at 37° C. as detected by scintillation counting. See Chassande, et al. (1988) “The Na^+/K^+/Cl^− Cotransport in C6 glioma cells. Properties and role in volume regulation.” Eur. J. Biochem. 171: 425433."}, "[2]": {"molecular_target": "T2, α4β3γ2 GABAA receptor isoform (Homo sapiens, UniProt P18507+P28472+P48169)", "T2 construct": "expressed in transfected cells; host or cells: HEK-293T, transient transfection", "T2 sequence (P48169 36-554)": "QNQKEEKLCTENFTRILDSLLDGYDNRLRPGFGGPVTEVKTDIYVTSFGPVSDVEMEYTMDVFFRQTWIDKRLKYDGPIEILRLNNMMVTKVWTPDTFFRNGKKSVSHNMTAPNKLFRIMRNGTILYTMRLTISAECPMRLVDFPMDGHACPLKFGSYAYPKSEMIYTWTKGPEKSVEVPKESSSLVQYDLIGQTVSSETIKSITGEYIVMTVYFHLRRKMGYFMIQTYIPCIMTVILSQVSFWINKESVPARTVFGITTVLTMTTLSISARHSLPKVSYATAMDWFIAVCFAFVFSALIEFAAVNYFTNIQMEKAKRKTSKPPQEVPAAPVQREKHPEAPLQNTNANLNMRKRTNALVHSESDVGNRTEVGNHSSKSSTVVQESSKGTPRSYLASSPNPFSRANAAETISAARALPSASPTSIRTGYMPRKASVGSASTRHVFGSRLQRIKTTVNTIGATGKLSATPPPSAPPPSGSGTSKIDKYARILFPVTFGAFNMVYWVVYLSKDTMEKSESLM", "T2 sequence (P28472 26-473)": "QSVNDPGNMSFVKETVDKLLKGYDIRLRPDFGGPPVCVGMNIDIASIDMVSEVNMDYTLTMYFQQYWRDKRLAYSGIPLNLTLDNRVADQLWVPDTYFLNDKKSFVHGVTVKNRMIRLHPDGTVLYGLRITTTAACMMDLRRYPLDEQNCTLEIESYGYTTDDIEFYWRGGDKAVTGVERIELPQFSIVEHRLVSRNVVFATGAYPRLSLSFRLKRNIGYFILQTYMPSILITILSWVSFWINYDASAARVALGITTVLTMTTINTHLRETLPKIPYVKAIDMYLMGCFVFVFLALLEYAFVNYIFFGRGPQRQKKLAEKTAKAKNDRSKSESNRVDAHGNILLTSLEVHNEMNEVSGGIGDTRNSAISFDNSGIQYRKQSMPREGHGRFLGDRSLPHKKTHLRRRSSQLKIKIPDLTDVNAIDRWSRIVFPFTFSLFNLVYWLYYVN", "T2 sequence (P18507 40-475)": "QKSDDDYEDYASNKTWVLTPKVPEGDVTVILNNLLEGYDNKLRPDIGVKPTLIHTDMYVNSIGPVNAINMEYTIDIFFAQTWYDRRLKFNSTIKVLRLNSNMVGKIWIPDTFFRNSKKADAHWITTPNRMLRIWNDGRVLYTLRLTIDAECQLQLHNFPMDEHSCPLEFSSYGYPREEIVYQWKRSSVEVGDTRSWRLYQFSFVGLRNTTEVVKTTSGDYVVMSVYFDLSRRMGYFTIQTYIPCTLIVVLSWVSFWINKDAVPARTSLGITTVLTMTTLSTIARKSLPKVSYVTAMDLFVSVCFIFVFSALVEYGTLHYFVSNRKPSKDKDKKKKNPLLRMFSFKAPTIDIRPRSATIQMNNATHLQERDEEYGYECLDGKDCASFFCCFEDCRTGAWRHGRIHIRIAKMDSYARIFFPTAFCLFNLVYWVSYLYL", "test": "Whole-cell patch clamp, transfected HEK-293T cells", "type": "cell-based, rat or human", "protocol": "The addition of GABA to […] activates the recombinant expressed GABAA receptors, creating an ion movement through the ion channel in the GABAA receptor. The electrical current generated by the movement of chloride ions into the cells can be quantified.\nHEK-293T cells were transiently transfected with rat or human GABAA receptor subunits. Whole-cell patch clamp recording was performed at −50 mV unless otherwise indicated. Test compounds was diluted from a freshly made stock in DMSO, GABA was prepared from a frozen stock. For each experiment GABA or GABA+a test compound was applied for 5 seconds, and the electrical current generated by the movement of chloride ions into the cells was measured and recorded as a trace of current versus time.\nCompounds described herein (e.g., NTP-2014) were tested at high and low GABA concentrations against multiple GABAA receptor isoforms (e.g., α1β3γ2, α2β3 γ2, α3β3γ2, α3β3γ2, α4β3γ2, α5β3γ2, α6β3γ2). […] NTP-2014 inhibits the currents in the parasynaptic α4 GABAA receptor isoform in GABAergic interneurons. […]"}, "[3]": {"test": "Solubility in dosing vehicle (0.2% HPMC in physiological saline)", "type": "physicochemical", "details": "NTP-2024: 180 mg/kg or 18 mg/ml; NTP-2026: 100 mg/kg or 10 mg/ml"}}, "note": "“And” between values parts separate entries of the source, which are not always exact repeats. Equal values may be shown once. “Also recorded” adds a separate entry of the source. Read-outs that look alike come from different tables or passages of the source."}
{"smiles": "CCCCNc1cc(C(=O)O)cc(S(N)(=O)=O)c1Oc1ccccc1", "note": "[Bumetanide, reference compound]", "values": [{"measurement": "Effect of inhibitor pre-treatment on exposures and half-life", "setting": "[1]; rats", "value": "with inhibitor increased bumetanide exposures and half-life;"}, {"measurement": "inhibition at 10 µM", "setting": "Na+K+Cl− co-transporter", "value": 76, "unit": "%"}, {"measurement": "remaining activity at 10 µM", "setting": "Na+K+Cl− co-transporter", "value": 24, "unit": "%"}, {"measurement": "Effect on α4β3γ2 GABAA receptor isoform", "setting": "[2]; up to a concentration of 100 μM, 100 μM GABA", "value": "no effect; also recorded: no-effect"}]}
{"smiles": "CCCCN(CCCC)c1cc(C(=O)O)cc(S(N)(=O)=O)c1Oc1ccccc1", "note": "[NTP-2014, 3-Aminosulfonyl-5-N,N-dibutylamino-4-phenoxybenzoic acid]", "values": [{"measurement": "inhibition at 10 µM", "setting": "Na+K+Cl− co-transporter", "value": -4, "unit": "%"}, {"measurement": "remaining activity at 10 µM", "setting": "Na+K+Cl− co-transporter", "value": 104, "unit": "%"}, {"measurement": "IC50", "setting": "[2]; 100 μM GABA (FIG. 42), read-out: IC50, inhibition of α4β3γ2 GABAA receptor isoform", "value": 16, "unit": "µM"}, {"measurement": "Effect on currents, α4 GABAA receptor isoform", "setting": "[2]; 1, 10, 100 μM GABA", "value": "inhibiting currents; also recorded: inhibited by NTP-2014 at higher GABA concentrations, but unaffected at lower GABA concentrations; also recorded: inhibition of currents"}, {"measurement": "EC50", "setting": "[2]; FIG. 41C, read-out: EC50 in α4 containing GABAA receptor isoforms", "value": 20.2, "unit": "µM"}, {"measurement": "IC50", "setting": "[2]; read-out: IC50, receptors containing the α4 subunit", "value": "10 to 30", "unit": "µM"}]}
{"smiles": "CCCCNc1cc(C(=O)NN2CCOCC2)cc(S(N)(=O)=O)c1Oc1ccccc1", "note": "[NTP-2024, N-Morpholinyl 3-Aminosulfonyl-5-N-butylamino-4-phenoxybenzamide]", "values": [{"measurement": "Solubility issues at the highest dose tested", "setting": "[3]", "value": "Mild solubility issues"}, {"measurement": "Concentration of NTP-2024 in rat blood", "setting": "[1]; NTP-2024 100 mg/kg IP, PBx pretreated, 15 m", "value": "3939.86 ng/mL and 4358.32 ng/mL and 6418.34 ng/mL"}, {"measurement": "Concentration of NTP-2000 (bumetanide) in rat blood", "setting": "[1]; PBx pretreated, 5 m", "value": "4.155 ng/mL and 3.804 ng/mL and 3.493 ng/mL"}, {"measurement": "Concentration of NTP-2000 (bumetanide) in rat blood", "setting": "[1]; PBx pretreated, 30 m", "value": "13.3456 ng/mL and 10.0076 ng/mL and 8.433 ng/mL"}, {"measurement": "Concentration of NTP-2000 (bumetanide) in rat blood", "setting": "[1]; PBx pretreated, 1 h", "value": "12.2513 ng/mL and 9.158 ng/mL and 8.065 ng/mL"}, {"measurement": "Concentration of NTP-2000 (bumetanide) in rat blood", "setting": "[1]; PBx pretreated, 2 h", "value": "15.0994 ng/mL and 8.16 ng/mL and 8.949 ng/mL"}, {"measurement": "Degradation to bumetanide in the blood", "setting": "[1]; i.p., rats", "value": "does not readily degrade to bumetanide"}, {"measurement": "Concentrations in blood and in brain tissue", "setting": "[1]; rats pretreated with inhibitor", "value": "Rats pretreated with inhibitor demonstrated high concentrations"}, {"measurement": "% Inhibition of Control Values", "setting": "Na+K+Cl− co-transporter; 10 μM", "value": 20, "unit": "%"}, {"measurement": "% of Control Value", "setting": "Na+K+Cl− co-transporter; 10 μM", "value": 80.2, "unit": "%"}]}
{"smiles": "CCCCNc1cc(C(=O)N(C)CCCN(C)C)cc(S(N)(=O)=O)c1Oc1ccccc1", "note": "[NTP-2026, N-(3-(Dimethylamino)propyl)-N-methyl 3-Aminosulfonyl-5-N-butylamino-4-phenoxybenzamide]", "values": [{"measurement": "Solubility issues at the highest dose tested", "setting": "[3]", "value": "Significant solubility issues"}]}
